Read-outs that look alike come from different tables or passages of the source.
Columns and labels:
[1] = system: human lung cancer strain NCI-H441;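 further: cell proliferation inhibition after four days measured by CellTiter-Glo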
[2] = target: GDP-bound NRAS wild-type protein (Homo sapiens, UniProt P01111); experiment: Binding to NRAS by surface plasmon resonance (SPR), Single Cycle Kinetics; settings: SPR; for NRAS/KRAS (ratio of KD value for NRAS to KD value for KRAS): GDP-bound NRAS wild-type protein vs GDP-bound KRAS wild-type protein
[3] = target: GDP-bound KRAS wild-type protein (Homo sapiens, UniProt P01116); experiment: Binding to KRAS by surface plasmon resonance (SPR), Single Cycle Kinetics; settings: SPR, Single Cycle Kinetics
[4] = target: GDP-bound HRAS wild-type protein (Homo sapiens, UniProt P01112); experiment: Binding to HRAS by surface plasmon resonance (SPR), Single Cycle Kinetics; settings: SPR; for HRAS/KRAS (ratio of KD value for HRAS to KD value for KRAS): GDP-bound HRAS wild-type protein vs GDP-bound KRAS wild-type protein
[5] = read-out: NCI-H441 cell proliferation inhibitory activity, 50% proliferation inhibitory concentration (IC50 value), NCI-H441, four days, CellTiter-Glo
[6] = GDP-bound KRAS wild-type protein, read-out: KRAS KD

Sequence of GDP-bound KRAS wild-type protein (P01116 whole entry): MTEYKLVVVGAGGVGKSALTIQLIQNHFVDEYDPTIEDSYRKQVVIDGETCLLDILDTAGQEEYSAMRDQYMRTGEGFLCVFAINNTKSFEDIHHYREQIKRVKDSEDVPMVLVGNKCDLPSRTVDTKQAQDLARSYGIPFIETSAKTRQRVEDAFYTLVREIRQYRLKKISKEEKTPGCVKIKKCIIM
Sequence of GDP-bound NRAS wild-type protein (P01111 whole entry): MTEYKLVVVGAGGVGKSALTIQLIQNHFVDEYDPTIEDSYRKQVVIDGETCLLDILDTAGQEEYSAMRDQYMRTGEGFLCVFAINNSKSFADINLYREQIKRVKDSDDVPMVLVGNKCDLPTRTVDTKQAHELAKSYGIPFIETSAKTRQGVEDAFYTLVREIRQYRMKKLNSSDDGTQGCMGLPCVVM
Sequence of GDP-bound HRAS wild-type protein (P01112 whole entry): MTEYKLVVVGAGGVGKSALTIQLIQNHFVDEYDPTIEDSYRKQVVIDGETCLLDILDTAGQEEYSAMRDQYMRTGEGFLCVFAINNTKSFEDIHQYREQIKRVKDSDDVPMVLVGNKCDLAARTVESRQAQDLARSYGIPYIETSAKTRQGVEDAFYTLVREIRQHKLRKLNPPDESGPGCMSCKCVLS

Structure (SMILES)	IC50 [1, 5] [nM]	NRAS/KRAS (ratio of KD value for NRAS to KD value for KRAS) [2]	ratio of the KD value with respect to GDP-bound NRAS wild-type protein to the KD value with respect to KRAS [2]	Kd [3, 6] [nM]	HRAS/KRAS (ratio of KD value for HRAS to KD value for KRAS) [4]	ratio of the KD value with respect to GDP-bound HRAS wild-type protein to the KD value with respect to KRAS [4]	IC50 [1] [nM]	Kd ([3]; 1:1 binding model, read-out: KD value with respect to GDP-bound KRAS wild-type protein) [nM]
CCO[C@@H]1C[C@H]2C(=O)NC3(CC(C)(C)C3)C(=O)N(C)[C@@H](C3CCCC3)C(=O)N(C)[C@H](C(=O)N(C)C)CC(=O)N(C)[C@H]3CCCCCc4ccc(cc4)C[C@@H](C(=O)N(C)CC(=O)N[C@@H](CCc4ccc(C(F)(F)F)c(OC)c4)C(=O)N2C1)N1CC/C=C\C[C@@H](C1=O)N(C)C(=O)CN(C1CC1)C(=O)[C@H]([C@@H](C)CC)NC3=O [PP3075]	1.1	A (a compound having 10 or more and less than 20 is denoted as A)	A (a compound having 10 or more and less than 20 is denoted as A)	0.076	A (a compound having 10 or more and less than 20 is denoted as A)	A (a compound having 10 or more and less than 20 is denoted as A)	–	–
CCO[C@@H]1C[C@H]2C(=O)NC3(CC(C)(C)C3)C(=O)N(C)[C@@H](C3CCCC3)C(=O)N(C)[C@H](C(=O)N(C)C)CC(=O)N(C)[C@H]3CCCCCc4ccc(cc4)C[C@@H](C(=O)N(C)CC(=O)N[C@@H](CCc4ccc(Cl)c(Cl)c4)C(=O)N2C1)N1CC/C=C\C[C@@H](C1=O)N(C)C(=O)CN(C)C(=O)[C@H]([C@@H](C)CC)NC3=O [PP3076]	4.1	AA (a compound having 20 or more is denoted as AA)	AA (a compound having 20 or more is denoted as AA)	0.059	A (a compound having 10 or more and less than 20 is denoted as A)	A (a compound having 10 or more and less than 20 is denoted as A)	–	–
CCCO[C@@H]1C[C@H]2C(=O)NC3(CC(C)(C)C3)C(=O)N(C)[C@@H](C3CCCC3)C(=O)N(C)[C@H](C(=O)N(C)C)CC(=O)N(C)[C@H]3CCCCc4ccc(cc4)C[C@@H](C(=O)N(C)CC(=O)N[C@@H](CCc4ccc(C(F)(F)F)c(OC)c4)C(=O)N2C1)N1CC/C=C\C[C@@H](C1=O)N(C)C(=O)CN(C)C(=O)[C@H]([C@@H](C)CC)NC3=O [PP3077]	0.8	A (a compound having 10 or more and less than 20 is denoted as A)	A (a compound having 10 or more and less than 20 is denoted as A)	0.04	B (a compound having 3 or more and less than 10 is denoted as B)	B (a compound having 3 or more and less than 10 is denoted as B)	–	–
CC[C@H](C)[C@@H]1NC(=O)[C@@H]2CCCCc3ccc(cc3)C[C@@H](C(=O)N(C)CC(=O)N[C@@H](CCc3ccc(C(F)(F)F)c(OC)c3)C(=O)N3C[C@H](OC(C)C)C[C@H]3C(=O)NC3(CC(C)(C)C3)C(=O)N(C)[C@@H](C3CCCC3)C(=O)N(C)[C@H](C(=O)N(C)CC)CC(=O)N2C)N2CC/C=C\C[C@@H](C2=O)N(C)C(=O)CN(C)C1=O [PP3078]	2.3	A (a compound having 10 or more and less than 20 is denoted as A)	A (a compound having 10 or more and less than 20 is denoted as A)	0.048	B (a compound having 3 or more and less than 10 is denoted as B)	B (a compound having 3 or more and less than 10 is denoted as B)	–	–
CC[C@H](C)[C@@H]1NC(=O)[C@@H]2CCCCc3ccc(cc3)C[C@@H](C(=O)N(C)CC(=O)N[C@@H](CCc3ccc(C(F)(F)F)c(OC)c3)C(=O)N3C[C@H](OC4CCC4)C[C@H]3C(=O)NC3(CC(C)(C)C3)C(=O)N(C)[C@@H](C3CCCC3)C(=O)N(C)[C@H](C(=O)N(C)CC)CC(=O)N2C)N2CC/C=C\C[C@@H](C2=O)N(C)C(=O)CN(C)C1=O [PP3079]	1.8	A (a compound having 10 or more and less than 20 is denoted as A)	A (a compound having 10 or more and less than 20 is denoted as A)	0.05	B (a compound having 3 or more and less than 10 is denoted as B)	B (a compound having 3 or more and less than 10 is denoted as B)	1.8	–
CC[C@H](C)[C@@H]1NC(=O)[C@@H]2CCCCc3ccc(cc3)C[C@@H](C(=O)N(C)CC(=O)N[C@@H](CCc3ccc(C(F)(F)F)c(OC)c3)C(=O)N3C[C@H](OC4CCCC4)C[C@H]3C(=O)NC3(CC(C)(C)C3)C(=O)N(C)[C@@H](C3CCCC3)C(=O)N(C)[C@H](C(=O)N(C)C)CC(=O)N2C)N2CC/C=C\C[C@@H](C2=O)N(C)C(=O)CN(C)C1=O [PP3080]	4.3	A (a compound having 10 or more and less than 20 is denoted as A)	A (a compound having 10 or more and less than 20 is denoted as A)	0.037	B (a compound having 3 or more and less than 10 is denoted as B)	B (a compound having 3 or more and less than 10 is denoted as B)	–	–
CC[C@H](C)[C@@H]1NC(=O)[C@@H]2CCCCc3ccc(cc3)C[C@@H](C(=O)N(C)CC(=O)N[C@@H](CCc3ccc(C(F)(F)F)c(OC)c3)C(=O)N3CC4(CC4)C[C@H]3C(=O)NC3(CC(C)(C)C3)C(=O)N(C)[C@@H](C3CCCC3)C(=O)N(C)[C@H](C(=O)N(C)CC)CC(=O)N2C)N2CC/C=C\C[C@@H](C2=O)N(C)C(=O)CN(C)C1=O [PP3081]	1.9	A (a compound having 10 or more and less than 20 is denoted as A)	A (a compound having 10 or more and less than 20 is denoted as A)	–	B (a compound having 3 or more and less than 10 is denoted as B)	B (a compound having 3 or more and less than 10 is denoted as B)	–	0.068

— US20240158446A1, “CYCLIC COMPOUND HAVING SELECTIVE INHIBITORY ACTION ON KRAS OVER HRAS AND NRAS” (CHUGAI SEIYAKU KABUSHIKI KAISHA, priority 2021, published 2024)
